The values that follow come from publication PMC10482691, “LTP induction by structural rather than enzymatic functions of CaMKII” (Nature, 2023).

Experiment [1] has as its target IGF-1R(h) (Homo sapiens, UniProt P08069). As to the kind of experiment: Kinase selectivity panel (residual activity at 1 μM). The format is biochemical. The settings on record: inhibitor at 1 μM; read-out: residual kinase activity in % of maximal activity.
In experiment [2] the target is purified CaMKIIα (Rattus norvegicus, UniProt P11275). As to the kind of experiment: In vitro kinase reaction: CaMKIIα phosphorylation of GST–GluA1 S831. The format is biochemical. The settings on record: 30 °C, 1 mM ATP, Ki from IC50 with Km ATP 33.3 μM, read-out: apparent inhibitor constant (Ki), pS831. Here is the method:
Data are presented as mean values ± s.e.m. a, Schematic of the AS283 inhibitor mechanism of action: ATP-competitive inhibition blocks enzymatic activity while mimicking the nucleotide binding requirement to allow interaction with GluN2B. b, Representative immunoblot and quantification of in vitro kinase reactions at 30 °C in 1 mM ATP measuring purified CaMKIIα phosphorylation of GST–GluA1 S831 with varying concentrations of AS283 (0.41–10 μM; n = 4 independent concentration curves). For a negative control (Neg.), ATP was omitted. […] ADP:AS283 P = 0.0697; ADP:tatCN21 P < 0.0001. ***P < 0.001. d, Confocal microscopy images of HEK293 cells co-expressing GFP–CaMKII and mCherry-2BC. […] CaMKII synaptic enrichment was measured before and after cLTP (n = 14,9 cells; RM two-way ANOVA with Šídák’s multiple comparisons test). […]
CaMKII-mediated phosphorylation of GluA1 S831 or GluN2B S1303 was measured by in vitro kinase reaction with a purified GST–GluA1 C-terminal tail or GST-GluN2B C-terminal tail. […] GST, phospho-S831, CaMKII, phospho-T286 or phospho-S1303 were detected in the samples by immunoblot analysis.
The inhibition constant Ki was calculated using the Cheng–Prusoff equation for competitive inhibition: Ki = IC50/(1 + [ATP]/Km).

In experiment [3] the target is PI3 Kinase (p110a/p85a)(h) (Homo sapiens, UniProt P42336). The experiment is described as follows: Kinase selectivity panel (residual activity at 1 μM). The format is biochemical. The settings on record: inhibitor at 1 μM; read-out: residual kinase activity in % of maximal activity.
Experiment [4] addresses Arg(h) (Homo sapiens, UniProt P42684). The experiment is described as above. The settings on record: inhibitor at 1 μM; read-out: residual kinase activity in % of maximal activity. The format is biochemical.
In experiment [5] the target is purified CaMKII (Rattus norvegicus, UniProt P11275). The experiment is described as follows: In vitro kinase reaction: CaMKII phosphorylation of GST-2BC (GluN2B) S1303. It is filed as biochemical. Here is the method:
CaMKII-mediated phosphorylation of GluA1 S831 or GluN2B S1303 was measured by in vitro kinase reaction with a purified GST–GluA1 C-terminal tail or GST-GluN2B C-terminal tail. Reactions contained 40 nM CaMKII, 1 μM GST–GluA1, 50 mM PIPES, pH 7.1, 2 mM CaCl2, 10 mM MgCl2, 1 μM calmodulin, 1–4 mM ATP and 1 μM okadaic acid. Negative controls were prepared without ATP. Reactions were done at 30 °C for 20 s; reactions were stopped by adding SDS loading buffer and incubation in a boiling water bath for 5 min. GST, phospho-S831, CaMKII, phospho-T286 or phospho-S1303 were detected in the samples by immunoblot analysis.
Extended Data Fig. 3 No difference in LTP in WT mice when CaMKII is inhibited by either 10 or 30 μM AS283. Data are presented as mean values +/− SEM. a, 2x HFS potentiates the CA3-CA1 Schaffer collateral pathway in WT mice when CaMKII enzymatic activity is inhibited by 10 or 30 μM AS283 (incubated for 15 min prior to HFS, and washed out 5 min after). b, Quantification of LTP in WT mice after 10 or 30 μM AS283 (n = 3,7 hippocampal slices; Mann-Whitney test). p = 0.3833. c, Representative immunoblot and quantification of CaMKII T286 phosphorylation in dissociated hippocampal cultures after cLTP and inhibition by 10 μM AS283 (n = 4 independent cell preparations; one-way ANOVA, Tukey’s multiple comparisons test). […]

Experiment [6] addresses MEK1(h) (Homo sapiens, UniProt Q02750). The experiment is described as follows: Kinase selectivity panel (residual activity at 1 μM). The format is biochemical. The settings on record: inhibitor at 1 μM; read-out: residual kinase activity in % of maximal activity.
Experiment [7] concerns the target p70S6K(h) (Homo sapiens, UniProt P23443). The description is as above. The format is biochemical. As to conditions: inhibitor at 1 μM; read-out: residual kinase activity in % of maximal activity.
The target in experiment [8] is CaMKI(h) (Homo sapiens, UniProt Q14012). The experiment is described as above. The format is biochemical. As to conditions: inhibitor at 1 μM; read-out: residual kinase activity in % of maximal activity.
Experiment [9] deals with GFP–CaMKII K42M in rat hippocampal neurons. The experiment is described as follows: cLTP-induced CaMKII synaptic enrichment in dissociated hippocampal cultures (GFP–CaMKII K42M). It is filed as cell-based. As to conditions: sheet 4e.

Values joined by “and” are separate entries in the source; they are usually repeats but may differ in a detail not shown here. Identical values can stand only once.

Chain of PI3 Kinase (p110a/p85a)(h) (P42336 whole entry): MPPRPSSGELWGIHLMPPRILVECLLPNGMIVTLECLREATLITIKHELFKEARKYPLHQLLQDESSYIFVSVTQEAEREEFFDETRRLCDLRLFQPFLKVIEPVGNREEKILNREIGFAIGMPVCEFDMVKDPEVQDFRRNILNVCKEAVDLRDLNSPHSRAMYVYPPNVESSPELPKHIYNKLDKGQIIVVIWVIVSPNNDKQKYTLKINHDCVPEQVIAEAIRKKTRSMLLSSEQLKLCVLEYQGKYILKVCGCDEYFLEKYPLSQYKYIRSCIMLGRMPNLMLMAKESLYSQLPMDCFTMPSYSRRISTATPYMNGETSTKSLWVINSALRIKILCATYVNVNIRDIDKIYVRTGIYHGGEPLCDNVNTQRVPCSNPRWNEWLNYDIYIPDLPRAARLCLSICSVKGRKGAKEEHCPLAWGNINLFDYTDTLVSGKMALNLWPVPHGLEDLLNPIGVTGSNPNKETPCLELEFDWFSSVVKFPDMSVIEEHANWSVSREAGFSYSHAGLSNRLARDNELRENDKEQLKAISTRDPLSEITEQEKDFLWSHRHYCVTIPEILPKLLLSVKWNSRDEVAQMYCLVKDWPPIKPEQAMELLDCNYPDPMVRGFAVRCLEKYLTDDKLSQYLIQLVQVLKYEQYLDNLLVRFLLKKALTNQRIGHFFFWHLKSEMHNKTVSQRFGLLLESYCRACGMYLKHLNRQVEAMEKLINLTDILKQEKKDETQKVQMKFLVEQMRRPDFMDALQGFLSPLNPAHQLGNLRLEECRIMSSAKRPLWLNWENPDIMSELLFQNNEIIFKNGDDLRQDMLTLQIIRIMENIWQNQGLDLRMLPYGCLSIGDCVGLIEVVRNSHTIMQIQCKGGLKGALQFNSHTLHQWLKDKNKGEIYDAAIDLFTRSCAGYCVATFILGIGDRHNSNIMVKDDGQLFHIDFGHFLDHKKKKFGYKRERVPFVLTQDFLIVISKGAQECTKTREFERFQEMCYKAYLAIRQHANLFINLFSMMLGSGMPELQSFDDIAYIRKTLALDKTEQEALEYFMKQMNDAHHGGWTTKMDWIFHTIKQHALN
Chain of PI3 Kinase (p110a/p85a)(h) (P27986 whole entry partner): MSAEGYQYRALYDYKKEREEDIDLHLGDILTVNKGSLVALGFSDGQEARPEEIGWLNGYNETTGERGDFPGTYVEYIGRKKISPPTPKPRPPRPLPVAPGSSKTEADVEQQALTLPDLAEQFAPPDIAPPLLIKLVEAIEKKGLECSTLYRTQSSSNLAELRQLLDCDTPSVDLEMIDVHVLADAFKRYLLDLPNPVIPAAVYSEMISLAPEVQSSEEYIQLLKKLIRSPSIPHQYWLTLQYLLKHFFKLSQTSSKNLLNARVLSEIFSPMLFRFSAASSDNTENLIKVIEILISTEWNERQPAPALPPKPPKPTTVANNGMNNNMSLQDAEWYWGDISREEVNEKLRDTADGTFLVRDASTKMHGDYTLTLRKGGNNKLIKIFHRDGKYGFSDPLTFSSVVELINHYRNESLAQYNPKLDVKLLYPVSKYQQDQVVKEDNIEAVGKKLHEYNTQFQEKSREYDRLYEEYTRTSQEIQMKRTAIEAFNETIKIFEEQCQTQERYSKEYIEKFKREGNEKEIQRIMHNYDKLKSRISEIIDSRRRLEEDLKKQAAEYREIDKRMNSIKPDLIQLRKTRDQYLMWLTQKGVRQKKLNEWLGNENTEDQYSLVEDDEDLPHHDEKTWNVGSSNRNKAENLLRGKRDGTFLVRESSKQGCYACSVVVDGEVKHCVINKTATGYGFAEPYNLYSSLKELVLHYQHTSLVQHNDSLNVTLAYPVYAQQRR
Chain of p70S6K(h) (P23443 whole entry): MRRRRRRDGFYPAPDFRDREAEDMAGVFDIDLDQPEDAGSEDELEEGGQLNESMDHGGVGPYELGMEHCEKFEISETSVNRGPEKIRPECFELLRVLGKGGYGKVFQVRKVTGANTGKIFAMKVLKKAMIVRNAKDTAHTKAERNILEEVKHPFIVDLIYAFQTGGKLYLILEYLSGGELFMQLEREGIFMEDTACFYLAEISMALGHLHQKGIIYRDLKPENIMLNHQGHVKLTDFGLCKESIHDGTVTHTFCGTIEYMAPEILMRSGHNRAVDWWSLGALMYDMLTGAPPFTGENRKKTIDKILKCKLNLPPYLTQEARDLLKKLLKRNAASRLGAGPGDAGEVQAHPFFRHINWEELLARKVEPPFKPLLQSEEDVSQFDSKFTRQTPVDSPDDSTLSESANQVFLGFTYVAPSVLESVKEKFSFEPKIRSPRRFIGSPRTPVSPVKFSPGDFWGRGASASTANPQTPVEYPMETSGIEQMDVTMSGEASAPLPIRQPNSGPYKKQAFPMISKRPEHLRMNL
Chain of Arg(h) (P42684 whole entry): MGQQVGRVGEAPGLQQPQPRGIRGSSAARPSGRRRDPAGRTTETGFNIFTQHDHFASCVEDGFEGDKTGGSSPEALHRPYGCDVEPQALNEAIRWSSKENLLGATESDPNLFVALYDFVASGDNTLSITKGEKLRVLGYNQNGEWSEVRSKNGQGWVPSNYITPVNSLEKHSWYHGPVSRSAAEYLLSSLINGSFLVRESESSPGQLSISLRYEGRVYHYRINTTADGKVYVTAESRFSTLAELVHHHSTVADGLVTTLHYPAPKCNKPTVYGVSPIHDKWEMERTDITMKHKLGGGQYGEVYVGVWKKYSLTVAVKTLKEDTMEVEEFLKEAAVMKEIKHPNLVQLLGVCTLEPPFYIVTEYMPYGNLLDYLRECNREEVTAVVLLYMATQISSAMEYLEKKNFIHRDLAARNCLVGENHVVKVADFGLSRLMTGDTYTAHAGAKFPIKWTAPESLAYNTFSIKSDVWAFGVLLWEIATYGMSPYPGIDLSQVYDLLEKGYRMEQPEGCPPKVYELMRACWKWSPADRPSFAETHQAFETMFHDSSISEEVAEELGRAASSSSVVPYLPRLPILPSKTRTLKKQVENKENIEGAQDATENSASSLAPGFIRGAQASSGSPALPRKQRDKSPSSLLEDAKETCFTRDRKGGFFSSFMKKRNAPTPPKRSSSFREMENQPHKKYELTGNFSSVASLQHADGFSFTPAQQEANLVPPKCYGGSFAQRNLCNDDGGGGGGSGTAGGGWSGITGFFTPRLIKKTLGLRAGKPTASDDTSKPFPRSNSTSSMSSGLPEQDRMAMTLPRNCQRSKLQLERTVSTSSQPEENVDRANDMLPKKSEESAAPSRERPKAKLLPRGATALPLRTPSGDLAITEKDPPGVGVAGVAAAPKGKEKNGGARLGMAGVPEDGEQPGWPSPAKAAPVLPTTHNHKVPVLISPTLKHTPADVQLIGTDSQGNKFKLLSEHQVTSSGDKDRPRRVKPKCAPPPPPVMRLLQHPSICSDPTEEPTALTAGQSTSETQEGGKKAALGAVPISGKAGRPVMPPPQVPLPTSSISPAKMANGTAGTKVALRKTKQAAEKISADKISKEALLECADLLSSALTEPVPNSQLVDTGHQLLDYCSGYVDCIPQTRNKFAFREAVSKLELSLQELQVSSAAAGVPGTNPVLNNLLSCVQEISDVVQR
Chain of CaMKI(h) (Q14012 whole entry): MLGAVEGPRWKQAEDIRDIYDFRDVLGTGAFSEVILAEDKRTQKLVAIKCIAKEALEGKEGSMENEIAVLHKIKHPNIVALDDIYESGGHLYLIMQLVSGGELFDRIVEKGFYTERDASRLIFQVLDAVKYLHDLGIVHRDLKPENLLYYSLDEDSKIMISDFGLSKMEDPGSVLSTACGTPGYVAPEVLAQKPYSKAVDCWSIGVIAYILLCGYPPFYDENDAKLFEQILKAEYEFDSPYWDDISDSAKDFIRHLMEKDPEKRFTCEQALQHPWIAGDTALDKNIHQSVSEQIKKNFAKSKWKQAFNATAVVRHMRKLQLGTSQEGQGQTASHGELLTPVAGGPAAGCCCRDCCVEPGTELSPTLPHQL
Chain of MEK1(h) (Q02750 whole entry): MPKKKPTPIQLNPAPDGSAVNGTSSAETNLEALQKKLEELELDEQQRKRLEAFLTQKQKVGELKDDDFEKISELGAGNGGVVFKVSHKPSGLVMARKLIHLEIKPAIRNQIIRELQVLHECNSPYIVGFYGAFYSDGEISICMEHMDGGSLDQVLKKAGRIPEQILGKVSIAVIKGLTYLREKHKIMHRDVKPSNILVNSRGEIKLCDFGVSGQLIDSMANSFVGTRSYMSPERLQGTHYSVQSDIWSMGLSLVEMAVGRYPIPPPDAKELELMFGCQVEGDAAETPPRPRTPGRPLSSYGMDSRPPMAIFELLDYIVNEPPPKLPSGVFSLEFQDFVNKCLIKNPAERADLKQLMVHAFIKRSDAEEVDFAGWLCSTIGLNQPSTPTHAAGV

On to `NCCNc1cccc(-c2ccnc3[nH]c4ccccc4c23)c1` [AS283], for which the remaining activity at 1 µM was determined as 110% in experiment [1]; 100% in [3]; 96% in experiment [4]; 85% in experiment [6]; 18% in experiment [7]; 107% in experiment [8]. For the same compound, the Ki in [2] was found to be 17 nM. For the same compound, the “GluN2B S1303 phosphorylation (immunoblot, normalized)” value in [5] (ATP + 10 μM AS283, 30 °C) is 25.6775% and 36.949% and 34.6383% and 24.0932%. For the same compound, the “effect on CaMKII-mediated S1303 phosphorylation” value in experiment [5] (WT GluN2B C terminus) was “inhibited”.
Turning to `CC(C)(C)n1nc(Cc2cccc3ccccc23)c2c(N)ncnc21` [NM-PP1], the CaMKII synaptic enrichment was 1.065 and 0.7915 and 0.7418 and 0.4255 and 0.8744 and 0.8871 in experiment [9] (NMPP1, before cLTP, individual neurons); 1.554 and 1.155 and 0.8796 and 0.5587 and 1.358 and 1.0618 in [9] (after cLTP in NMPP1, individual neurons).
